Measurements from patent US20250367283A1, “MEVALONATE PATHWAY INHIBITOR AS HIGHLY-EFFICIENT VACCINE ADJUVANT” (Tsinghua University, priority 2015, published 2025).
Read-outs that look alike come from different tables or passages of the source.

Assays:
[1] = test system: anti-OVA IgM and IgG antibodies; assay: OVA evaluation system: adjuvant activity in antibody titer in mice; type: in vivo; details: for adjuvant effect among bisphosphonic acid compounds / adjuvant effect vs 8 commercially available bisphosphonic acid compounds: 100 ug; for adjuvant effect among TH-Z80 series: intramuscular, OVA
Description: OVA evaluation system was used to determine adjuvant activity in antibody titer.
Mice of C57B/6 strain were used. The mice in the experimental group were injected with the obtained mixture of each of the statins and OVA antigen through soles injection, with 20 μl for each mouse. The mice in the control group were injected with a 1:1 mixture of PBS or DMSO (10 μl) and 10 μl OVA antigen (PBS or DMSO is 10 μl, respectively, and the antigen is 10 μl) through soles injection, with 20 μl for each mouse. On Day 7 and Day 14 after immunization, blood was taken from the mice's orbits, with 100 μl was taken from each mouse. The obtained blood was left at 4° C. overnight, and centrifuged at 6000 rpm for 8 min. The supernatant serum was removed and the titers of anti-OVA IgM and IgG antibodies in the serum were determined.
Test of the OVA antibody titer: The OVA protein was diluted to a concentration of 2 μg/ml with a carbonate solution of pH 9.6, coated in a 96-well ELISA plate at 50 μl per well, and left at 4° C. overnight. The ELISA plate was washed five times with PBS containing 0.05% Tween 20, blocked with 1% BSA solution at 200 μl per well, and incubated at room temperature for 2 h. The ELISA plate was washed five times with PBST (Phosphate Buffered Saline with Tween), a 2-fold serial dilution of the mouse serum after immunized with OVA was added at 50 μl per well and incubated at room temperature for 2 h. After the ELISA plate was washed five times with PBST, HRP (horseradish peroxidase)-labeled goat-anti-mouse IgM or IgG antibody was added and incubated at room temperature for 45 min. The ELISA plate was washed five times with PBST, and a color developing solution of sodium citrate OPD (o-phenylenediamine) was added. After 10 min of color development in the dark, sulfuric acid was added to terminate the reaction. The reading was performed with ELIASA OD490. The maximum serum dilution factor, when the ratio of light absorptions of the experimental group to the control group was >2.0, was the titer of the anti-OVA antibody in the serum.
Each test compound was formulated at a concentration of 2 mg/ml and the concentration of OVA antigen was 2 mg/ml. Each compound was mixed with OVA at 1:1. Each C57B/6 mouse in the experimental group was injected with 100 μl of the mixture (containing 50 μl of the antigen and 50 μl of the compound) by intramuscular injection at the right thigh. On Day 7 and Day 14 after immunization, blood was taken from the mice's orbit, and 100 μl was taken for each mouse. The obtained blood was allowed to stand at 4° C. overnight, and centrifuged at 6000 rpm for 8 min. The supernatant serum was removed, and the titers of anti-OVA IgM and IgG antibodies in the serum were determined.
Method: each of the test compounds (the 10 bisphosphonates as described above) was mixed with the OVE antigen at 1:1, and the concentrations of bisphosphonic acid and OVA were both 10 mg/ml. Mice of C57B/6 strain were used. The mice in the experimental group were injected with the mixture of each of the test compounds and OVA antigen through soles injection, with 20 μl for each mouse, and wherein the amounts of OVA antigen and each of the test compounds were both 100 ug. The mice in the control group were injected with a 1:1 mixture of […] and 10 μl OVA antigen through sole injection. On Day 7 and Day 14 after immunization, blood was taken from the mice's orbits, and 100 μl was taken from each mouse.
The obtained blood was left at 4° C. overnight, and centrifuged at 6000 rpm for 8 min. The supernatant serum was removed, and the titers of anti-OVA IgM and IgG antibodies in the serum were determined.
Method: TH-Z144 and TH-Z145 were prepared at the concentration of 10 mg/ml, the concentration of OVA antigen was also 10 mg/ml, and the compound and the antigen were mixed at 1:1. Mice of C57B/6 strain were used.

[2] = target: humanized farnesyl pyrophosphate synthase (HsFPPS) (Homo sapiens (Human), UniProt P14324); assay: In vitro HsFPPS enzyme activity assay; type: biochemical
humanized farnesyl pyrophosphate synthase (HsFPPS), sequence (P14324 whole entry, looked up): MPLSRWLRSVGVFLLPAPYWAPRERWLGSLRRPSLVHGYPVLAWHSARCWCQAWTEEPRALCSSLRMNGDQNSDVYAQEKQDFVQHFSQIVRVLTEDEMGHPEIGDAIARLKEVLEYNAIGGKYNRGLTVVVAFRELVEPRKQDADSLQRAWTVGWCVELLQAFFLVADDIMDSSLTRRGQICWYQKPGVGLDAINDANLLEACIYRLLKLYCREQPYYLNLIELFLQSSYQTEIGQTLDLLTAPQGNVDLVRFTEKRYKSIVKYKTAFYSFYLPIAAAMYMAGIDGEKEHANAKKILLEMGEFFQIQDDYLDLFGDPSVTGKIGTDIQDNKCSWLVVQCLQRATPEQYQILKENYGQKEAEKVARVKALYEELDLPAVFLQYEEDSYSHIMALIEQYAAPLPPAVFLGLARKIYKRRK
Description: The measurement method is briefly described as follows: the expression of HsFPPS with 6 consecutive His at the N-terminus was induced in vitro, collected, and purified by Ni column. An in vitro HsFPPS enzyme activity assay was performed in a 96-well plate with 200 μl of solution per well. The buffer of the system was 25 mM HEPES, 2.5 mM MgCl2, pH 7.4. Using DMAPP and IPP as reaction substrates, the change of the UV value at a wavelength of 360 nm was monitored in real time in a phosphate lyase system. The ORIGIN 8.0 software was used to plot and fit. The IC50 values for the inhibition of FPPS by the TH-Z80 series of compounds were shown in the following table, in micromoles per liter (μM).
HsFPPs with 6 consecutive His at the N-terminus was induced to express in vitro, collected, and purified by Ni column. In vitro HsFPPs enzymatic activity assay was performed in a 96-well plate at 200 μl of solution per well. The buffer of the system was 25 mM HEPES, 2.5 mM MgCl2, pH 7.4. Using DMAPP and IPP as reaction substrates, the changes of UV at 360 nm were monitored in real-time in phosphate lyase system. ORIGIN 8.0 software was used to plot and fit.

[3] = test system: anti-OVA IgM and IgG antibodies; assay: Rescue experiment of GGPP and GGOH on adjuvant activity; type: in vivo, mice; details: for effect of GGPP and GGOH on adjuvant effects: GGPP and GGOH added; for IgG and IgM antibody titers vs PBS control: without addition of GGPP or GGOH
Description: In particular, we investigated the effect of GGOH and GGPP on the adjuvant activity of simvastatin (HMG-COA reductase inhibitor), TH-Z93 (FPPS inhibitor), and TH-Z145 (GGPPS inhibitor).
Method: Simvastatin, TH-Z93 and TH-Z145 were formulated at a concentration of 10 mg/ml; the concentration of OVA antigen was 20 mg/ml; and GGOH and GGPP were formulated into a series of solutions at concentrations of 200 mg/ml, 100 mg/ml, 40 mg/ml and 20 mg/ml, respectively. For the experimental group, on the one hand, titers of antibodies were measured when immunization was performed without adding GGOH or GGPP while only mixing 10 μl of test compound and 5 μl of OVA antigen. On the other hand, titers of antibodies were measured when immunization was performed after adding GGOH or GGPP; specifically, 10 μl of test compound, 5 μl of OVA antigen and 5 μl of each concentration of GGOH or GGPP (total volume of 20 μl) were mixed and used for immunization in mice by injection at the sole of the right feet. Mice in the control group were treated with PBS and the antigen only, without addition of test compounds and GGOH or GGPP. On Day 7 and Day 14 after immunization, blood was taken from the mice's orbit, and 100 μl was taken for each mouse. The obtained blood was left at 4° C. overnight. The serum was separated, and titers of anti-OVA IgM and IgG antibodies in the serum were determined.

[4] = bisphosphonic acids 100 ug with OVA, soles injection, Day 7 and Day 14
[5] = Example 15 table, read-out: HsFPPS (IC50/μM)
[6] = TH-Z80 series, DMAPP and IPP substrates, pH 7.4, read-out: IC50 for inhibition of FPPS

| Compound | adjuvant effect among TH-Z80 series [1] | IC50 [2, 5] [µM] | IC50 [2, 6] [µM] | effect of GGPP and GGOH on adjuvant effects [3] | IgG and IgM antibody titers vs PBS control [3] | other results |
| --- | --- | --- | --- | --- | --- | --- |
| CCCCCCOc1ccc2c(c1)ncn2CC(O)(P(=O)(O)O)P(=O)(O)O [TH-Z80] | most significant adjuvant effects | 0.11 | 0.11 | – | – | adjuvant effect among bisphosphonic acid compounds ([1]; soles injection): most significant adjuvant effects; adjuvant effect vs 8 commercially available bisphosphonic acid compounds ([1]; soles injection): much higher than any of the 8 commercially available bisphosphonic acid compounds; IgM and IgG antibody titers vs PBS control [1, 4]: more than five times higher; antibody titers vs PBS control at different immunization sites ([1]; soles, subcutaneous, muscle, abdominal and nasal mucosa): significantly increased |
| CCCCCCCCOc1ccc2c(c1)ncn2CC(O)(P(=O)(O)O)P(=O)(O)O [TH-Z81] | most significant adjuvant effects | 0.48 | 0.48 | – | – | – |
| CCCCCCOc1ccnc(NC(P(=O)(O)O)P(=O)(O)O)c1 [TH-Z93, (((4-(hexyloxy)pyridin-2-yl)amino)methylene)bisphosphonic acid] | – | – | – | effectively inhibit adjuvant effects | significantly higher | adjuvant effect among bisphosphonic acid compounds ([1]; soles injection): most significant adjuvant effects; adjuvant effect vs 8 commercially available bisphosphonic acid compounds ([1]; soles injection): much higher than any of the 8 commercially available bisphosphonic acid compounds; IgM and IgG antibody titers vs PBS control [1, 4]: more than five times higher; IC50 ([2]; o-aminopyridine bisphosphonic acid compounds, read-out: IC50 (inhibition of FPPS)): 0.1 µM |
| CCCCCCCOc1ccc2c(c1)ncn2CC(O)(P(=O)(O)O)P(=O)(O)O [TH-Z152] | most significant adjuvant effects | 0.14 | 0.14 | – | – | – |
| CCCCCCCCCOc1ccc2c(c1)ncn2CC(O)(P(=O)(O)O)P(=O)(O)O [TH-Z153] | most significant adjuvant effects | 4.9 | 4.9 | – | – | – |
| CCC(C)(C)C(=O)O[C@H]1C[C@@H](C)C=C2C=C[C@H](C)[C@H](CC[C@@H]3C[C@@H](O)CC(=O)O3)[C@H]21 [simvastatin, reference compound] | – | – | – | effectively inhibit adjuvant effects | significantly higher | adjuvant effect among statin drugs ([1]; statins with OVA, soles injection): most significant adjuvant effects; IgM and IgG antibody titers vs PBS or DMSO control ([1]; statins with OVA, soles injection, Day 7 and Day 14): significantly higher titers |
| (2-(3-(octyloxy)phenyl)ethane-1,1-diyl)bisphosphonic acid [TH-Z145] | – | – | – | effectively inhibit adjuvant effects | significantly higher | IgM and IgG antibody titers vs PBS control ([1]; GGPPS inhibitors 100 μg with OVA, right sole, Day 7 and Day 14): significantly higher titers |
